These results are taken from patent publication US11826403B2, “Target for diabetes treatment and prevention” (UNIVERSITE DE STRASBOURG, priority 2014, dated 2023).

One test deals with mature adipocytes. The experiment in a line: 2-NBDG glucose absorption in mature adipocytes infected with min-αPKC lentiviral particles. In kind it is cell-based, human. The conditions noted are these: n=8 per group. The procedure: Cell culture. Human white visceral preadipocytes (Catalog #: C-12732; PromoCell) and human mesenchymal stem cells (Catalog #: C-12974; PromoCell) derived from healthy bone marrow were purchased. The preadipocytes were seeded according to manufacturer's protocol and cultured in the Preadipocyte growth medium (Catalog #: C-27410; PromoCell) to confluence. One day before inducing terminal adipogenesis, the cells were infected with specific lentiviral particles consisted of a pool of 3 shRNAs target-specific constructs purchased from Santa Cruz Biotechnology and on the next day, adipogenic differentiation was induced by changing the medium to the Preadipocyte Differentiation Medium (Catalog #: C-27436; PromoCell) for 2 days. After the differentiation phase, the medium was finally changed to the Adipocyte Nutrition medium (Catalog #: C-27438; PromoCell). For the culture without insulin, Adipocyte Basal Medium (Catalog #: C-2431; PromoCell) without insulin was complemented with 5 g/L of deoxyglucose, 8 μg/mL d-Biotin, 400 ng/mL Dexamethasone. For the hMSCs, they were cultured in Mesenchymal Stem Cell Growth Medium (Catalog #: C-28010; PromoCell) to confluence. hMSCs were transfected with specific siRNAs as described above and on the next day adipogenic differentiation was induced by changing the medium to the MSC Adipogenic Differentiation Medium (Catalog #: C28011; Promocell). […]

Test [1] relates to ALMS1-silenced adipocytes. As to the kind of experiment: Immunodetection of GLUT4 / TBC1D4 at the plasma membrane in ALMS1-silenced adipocytes. The conditions noted are these: NIG-treated ALMS1-silenced adipocytes. In kind it is cell-based, human. The procedure:
Western blots and immunofluorescence microscopy. Male Alms1^foz/foz and WT littermates were anaesthetized. The following insulin sensitive tissues: liver, heart, muscle and adipose tissue were harvested and directly placed in RIPA buffer (Tris 50 mM, NaCl 150 mM, 0.1% SDS, 1% Triton-X100) supplemented with Complete mini protease inhibitor cocktail and PhosSTOP phosphatase inhibitor cocktail (Roche, Switzerland). Samples were sonicated and centrifuged […] at 17 000 g, 4° C. […]. Protein concentration assayed with BCA assay (Thermo Fisher Scientific, USA). Cellular proteins from cells were obtained by trichloroacetic acid precipitation and immunoblot analyses were performed using 30-50 μg total protein. Specific antibody binding was visualized using the SuperSignal® West Femto Maximum Sensitivity Substrate (catalog #: Lf145954, Pierce) on a BioRad Versadoc™ Imaging System or ImageQuant LAS 4000 imager (GE Healthcare, UK). Nonspecific proteins stained with Ponceau S were used as loading controls to normalize the signal obtained after specific immunodetection of the protein of interest using the Bio-Rad Quantity One program. For immunofluorescence experiments, the cells were seeded on permanox 8-wells Lab-Tek II Chamber Slide (Catalog #: 177445; NUNC). Cells were treated as indicated. […]

In test [2] the test system is human mature adipocytes. The experiment in a line: 2-NBDG absorption in control and ALMS1-silenced mature adipocytes. Format: cell-based. The conditions noted are these: for 2-NBDG absorption: ALMS1-silenced adipocytes, 30 min stimulation. The procedure: Cell culture. Human white visceral preadipocytes (Catalog #: C-12732; PromoCell) and human mesenchymal stem cells (Catalog #: C-12974; PromoCell) derived from healthy bone marrow were purchased. The preadipocytes were seeded according to manufacturer's protocol and cultured in the Preadipocyte growth medium (Catalog #: C-27410; PromoCell) to confluence. One day before inducing terminal adipogenesis, the cells were infected with specific lentiviral particles consisted of a pool of 3 shRNAs target-specific constructs purchased from Santa Cruz Biotechnology and on the next day, adipogenic differentiation was induced by changing the medium to the Preadipocyte Differentiation Medium (Catalog #: C-27436; PromoCell) for 2 days. After the differentiation phase, the medium was finally changed to the Adipocyte Nutrition medium (Catalog #: C-27438; PromoCell). For the culture without insulin, Adipocyte Basal Medium (Catalog #: C-2431; PromoCell) without insulin was complemented with 5 g/L of deoxyglucose, 8 μg/mL d-Biotin, 400 ng/mL Dexamethasone. For the hMSCs, they were cultured in Mesenchymal Stem Cell Growth Medium (Catalog #: C-28010; PromoCell) to confluence. hMSCs were transfected with specific siRNAs as described above and on the next day adipogenic differentiation was induced by changing the medium to the MSC Adipogenic Differentiation Medium (Catalog #: C28011; Promocell).
Following ALMS1 silencing in 2-week-old mature adipocytes, glucose absorption capacity was assessed using labelled glucose analogue (2-NBDG). In the absence of insulin stimulation, no 2-NBDG uptake could be detected in ALMS1-silenced and control mature adipocytes (FIG. 2A). […] Further to reduced glucose absorption in ALMS1-silenced adipocytes, the inventors observed a reduction in intracellular triglycerides (TG) in these cells a week later (FIGS. 2C-D). […]

Test [3] concerns ALMS1-silenced adipocytes. The experiment in a line: Intracellular triglyceride (TG) filling of ALMS1-silenced adipocytes. As to conditions: 24-hours post NIG treatment. In kind it is cell-based, human. As to the method:
Fluorescence measurement. The preadipocytes were cultured in a 96 well plate and 12 wells infected with the either ALMS1 shRNA lentiviral particles or CTRL shRNA lentiviral particles and differentiated the next day into mature adipocytes. 3 weeks later, the intracellular triglycerides were stained with AdipoRed staining following the manufacturer's procedure and the fluorescence was measured on a Tecan Infinite 200 quad4 monochromator (Tecan, Lyon, France) at a wavelength of 520 nm. The generated data were then analyzed using the Tecan Magellan Data Analysis software using as blank unstained adipocytes. The inventors next tested whether acidifying ALMS1-silenced adipocytes using Nigericin (NIG.), an electroneutral K^+/H^+ exchange ionophore known to cause osmotic swelling of the GSVs would bypass the Alms1-associated defect in GLUT4 fusion and glucose absorption.

Test [4] deals with human mature adipocytes. The experiment in a line: Electron microscopy of vesicle swelling and fusion with the plasma membrane. In kind it is cell-based. The source says: (§1) The inventors next tested whether acidifying ALMS1-silenced adipocytes using Nigericin (NIG.), an electroneutral K^+/H^+ exchange ionophore known to cause osmotic swelling of the GSVs would bypass the Alms1-associated defect in GLUT4 fusion and glucose absorption.

In test [5] the test system is human mature adipocytes. As to the kind of experiment: Acridine orange acidification of adipocytes (time lapse). In kind it is cell-based.
Source text: While AKT-phosphorylation of TBC1D4 has been known to in some way lead to GLUT4 trafficking, the ultimate GSV-PM fusion step is an insulin regulated non-AKT dependent event that requires osmotic swelling of the GSVs under the action of the vATPase H^+ pump. However, knowledge of the actual signal and mechanism for activation of the H^+ pump by insulin was missing. The inventors tested if ALMS1 inactivation could prevent the acidification of the GSVs and therefore the chemo-osmotic-mediated release of GLUT4 to the PM using the acidotrophic dye, acridine orange, which emits a green fluorescence at low concentration and an orange-red fluorescence at high concentrations in the lysosomes in which acridine orange is protonated and sequestered. In absence of insulin, no orange-red fluorescence was detected in the adipocytes.
as §1

In a further test the test system is Alms1foz/foz mice. As to the kind of experiment: Insulin tolerance test (ITT) in Alms1foz/foz mice. In kind it is in vivo, mouse. The source says:
Six month old obese and young (<60 days old) nonobese Alms1^foz/foz mice and wildtype (WT) littermates were used to investigate what primary metabolic impairment leads Alms1^foz/foz mice to develop T2DM. Six month old Alms1^foz/foz mice were obese with an average body weight of 45.5 g±1.7 g compared to 26.4 g±1.3 g for WT littermates (FIG. 1A) and as previously shown had fasting hyperglycaemia and impaired glucose tolerance with elevated HOMA scores. […] (FIG. 1C). Obesity of Alms1^foz/foz mice was due to severe adipocyte hypertrophy (FIG. 1B) rather than the adipocyte hyperplasia more typically seen in obese BBS mice. To determine what the primary defect was that was causing the glucose intolerance in Alms1^foz/foz mice, young lean Alms1^foz/foz mice were studied to remove the confounding effect of obesity on insulin responsiveness. […]
Biochemical tests. […] Tail blood was obtained and the plasma glucose was determined for each mouse using a glucometer (Optium Xceed, Abbott, USA) and blood glucose test strips (Optium point of care, Abbott, USA) at 0, 15, 30 and 60 min after insulin injection. […] Plasma glucose was determined for each mouse using a glucometer with sampling via tail vein at 0, 15, 30, 60 and 120 min after glucose injection. […] The homeostasis model assessment of insulin resistance (HOMA-IR) index was calculated using individual mouse fasting insulin and fasting glucose levels. […]

Setting [6] is: control human mature adipocytes.

For “min-αPKC-FLAG: minimum ALMS1-interacting domain of αPKC (SEQ ID NOs: 14 and 15) with Flag-TAG, expressed from a lentiviral vector”, the “2-NBDG absorption, increase compare to control” value in the test with mature adipocytes (absence of INS, control lentiviral particles as comparator) came out at 3.5 times. Also, the “2-NBDG absorption versus control” value in the test on mature adipocytes (presence of INS) is recorded as “no significant difference”.

In the case of `CO[C@@H]1C[C@@H](C[C@H]2CC[C@H](C)[C@H]([C@@H](C)C(=O)O)O2)O[C@]2(O[C@](C)([C@H]3CC[C@@](C)([C@@H]4O[C@@H]([C@H]5O[C@@](O)(CO)[C@H](C)C[C@@H]5C)C[C@@H]4C)O3)C[C@H]2C)[C@@H]1C` [Nigericin], in test [1], the “GLUT4 fusion with the PM” value was “restored GLUT4 fusion with the PM”. Moreover, the 2-NBDG absorption result in the test on human mature adipocytes [2] is recorded as “restore 2-NBDG absorption in the ALMS1-silenced adipocytes to levels seen in control cells”. The TG-filling of adipocytes entry in test [3] is reported as “restoration of TG-filling”. Also, the “vesicular swelling and fusion with the PM” value with human mature adipocytes [4] (ALMS1-silenced adipocytes) is “induced vesicular swelling and fusion with the PM”; in the test with human mature adipocytes [4] (control adipocytes) it was “induced vesicular swelling and fusion with the PM”. Besides, the “acidification (acridine orange orange-red fluorescence)” value with human mature adipocytes [5] (ALMS1-silenced adipocytes) and in the test on human mature adipocytes [5] (setting [6]) was “rapid acidification” throughout.

Turning to insulin, in the test on Alms1foz/foz mice (2 months old nonobese Alms1foz/foz males), the “insulin responsiveness (ITT)” value is given as “significantly reduced insulin responsiveness”. In addition, the “glycaemia response to insulin administration (ITT)” value with Alms1foz/foz mice (six month old obese Alms1foz/foz mice, doses as high as 20 U/kg) is recorded as “unresponsive”. The 2-NBDG absorption entry in the test with human mature adipocytes [2] is “little effect”. Also, the 2-NBDG uptake result in the test with human mature adipocytes [2] (control human mature adipocytes, insulin stimulation) is listed as “increased 2-NBDG uptake”. The results for the “vesicular swelling and fusion with the PM” value with human mature adipocytes [4] (ALMS1-silenced adipocytes) and in the test on human mature adipocytes [4] (control adipocytes) were “not in ALMS1-silenced adipocytes” and “swelling of the vesicles”, respectively. Moreover, the “acidification (acridine orange orange-red fluorescence)” value in the test with human mature adipocytes [5] (ALMS1-silenced adipocytes) is given as “loss of insulin-mediated acidification”; with human mature adipocytes [5] (setting [6]), “rapid appearance of red color”.
